Patent US8309593B2, “2-acylaminopropoanol-type glucosylceramide synthase inhibitors” (Genzyme Corporation, priority 2008, dated 2012)

Tests used:
GM3 = GM3 Elisa assay; format: cell-based; conditions: Table 3 (title: IC 50 Values); read-out: IC50_uM_Mean
Procedure: B16-FO cells from ATCC (American Tissue Culture Collection) were grown in DMEM media (ATCC) with 10% Fetal Bovine Serum (Hyclone) and Pen/Step/Glutamine (Biowhittaker). 4000 cells per well were plated on collagen coated plates (BD) and allowed to attach for 6 hours in an incubator (37 degrees, 5% CO2). After 6 hours the compounds and controls were added to the wells, the plates mixed and returned to the incubator for 2 days. Day of assay the cells were fixed for 20 minutes with 1% formaldehyde and then washed with Tris Buffered Saline (TBS) 3 times, 150 μl of TBS was left in the wells and 50 μl of goat serum (Invitrogen) was added, the plates mixed and incubated for 1 hour at room temperature. The plates were flicked and the cells incubated with the monoclonal Antibody to GM3 (NeuAc) (Cosmo) for 45 minutes as room temperature. The plates were then washed 3 times with TBS, leaving 150 μl of TBS in the wells and Peroxidase AffinPure F (ab′) 2 frag Gt Anti-mouse IgM, μ Chain Specific (Jackson Immuno Research) was added in 50 μl, the plates mixed and incubated for 45 minutes at room temperature. The plates were washed 3 times with TBS, flicked and blotted and 100 μl of Quantablu (Pierce) was added to the wells and incubated for 1 hour then read on a Fluorometer at Ex 325 and Em 420. The data was then analyzed using standard programs.

jck mice = assay: PKD mouse model (jck mice, compound in feed); format: in vivo; conditions: for BUN / Body weight / Cystic volume / K/BW ratio: 0.225% Compound A in feed
Procedure: jck mice was administered Compound A ad libitum in feed (0.225% Compound A mixed with a standard diet chow in powdered format) from 26-64 days of age. Control jck mice were fed a control powdered diet from 26-64 days of age. At 63 days of age, animals were transferred to metabolic cages for 24 hour urine collection. At 64 days of age, animals were sacrificed by CO2 administration. Blood was collected by heart puncture for serum isolation. Kidneys were isolated and bisected; half of each kidney was fixed in 4% paraformaldehyde in PBS overnight for paraffin embedding and H&E staining.
Total body weight and kidney weight were determined at sacrifice.
Cyst volume was measured by quantitating the percentage of cystic area in histological sections of kidneys from the treated and control animals, multiplied by the kidney/body weight ratio.
Blood urea nitrogen (BUN) levels were determined in serum samples derived from animals at sacrifice.

[1] = female jck mice, 26-64 days of age
[2] = male jck mice, 26-64 days of age

Compound	IC50 (GM3)	also measured
O=C(N[C@H](CN1CCCC1)[C@H](O)c1ccc2c(c1)OCCO2)[C@H]1CC[C@@H](C(=O)c2ccc(F)cc2)C1 [Compound 635]	3 to 10 µM	–
Cc1noc(CCCCC(=O)N[C@@H](CN2CCCC2)C(O)c2ccc3c(c2)OCCO3)n1 (stereo partly shown) [Compound 652]	3 to 10 µM	–
CC(=O)CCCCCC(=O)N[C@H](CN1CCCC1)[C@@H](O)c1ccc(OC(F)(F)F)cc1 [Compound 665]	3 to 10 µM	–
COc1ccc(C(=O)CCCCCC(=O)N[C@H](CN2CCCC2)[C@@H](O)c2ccc(OC(F)(F)F)cc2)cc1 [Compound 666]	0.1 to 1 µM	–
CCCCCCCC(=O)N[C@H](CN1CCCC1)[C@@H](O)c1ccc(OC(F)(F)F)cc1 [Compound 667]	0.1 to 1 µM	–
COc1cc([C@H](O)[C@@H](CN2CCCC2)NC(=O)CCCCCC(C)=O)cc(OC)c1OC [Compound 671]	3 to 10 µM	–
COc1ccc(OCCC(=O)N[C@@H](CN2CCCC2)[C@@H](O)c2ccc3c(c2)OCCO3)cc1 [Compound 674]	3 to 10 µM	–
COc1ccc(OCCC(=O)N[C@@H](CN2CCCC2)[C@@H](O)c2ccc3c(c2)OCCO3)cc1 [Compound 675]	3 to 10 µM	–
COc1ccc(OCCC(=O)N[C@H](CN2CCCC2)[C@@H](O)c2ccc3c(c2)OCCO3)cc1 [Compound 676]	3 to 10 µM	–
CCCCCCCCCCCCCCCCC(=O)N[C@H](CN(C)Cc1ccco1)[C@H](O)c1ccc2c(c1)OCCO2 [Compound 683]	3 to 10 µM	–
CCCCCCCCCCCCCCCC(=O)N[C@H](CN(C)C(C)C)[C@H](O)c1ccc2c(c1)OCCO2 [Compound 684]	0.1 to 1 µM	–
CCCCCCCCCCCCCCCC(=O)N[C@H](CN(C)C1CCCC1)C(O)c1ccc2c(c1)OCCO2 (stereo partly shown) [Compound 685]	3 to 10 µM	–
CCCCCCCCC(=O)N[C@H](CN1CCCC1)[C@H](O)c1ccc2c(c1)OCCO2 [Compound A, N-((1R,2R)-1-(2,3-dihydrobenzo[b][1,4]dioxin-6-yl)-1-hydroxy-3-(pyrrolidin-1-yl)propan-2-yl)nonanamide]	–	BUN (jck mice; [1]): 34.67 ± 9.41 mg/dL; Body weight (jck mice; [1]): 15.93 ± 1.65 g; Cystic volume (jck mice; [1]): 0.58 ± 0.29 % BW; K/BW ratio (jck mice; [1]): 3.57 ± 0.58 %; total body weight (jck mice; jck mice, 0.225% in feed, 26-64 days of age, at sacrifice, vs control, p-value<0.05, two-tailed t-test): statistically significant decrease; cyst volume (jck mice; jck mice, 0.225% in feed, 26-64 days of age, percentage cystic area x kidney/body weight ratio, vs control, p-value<0.05): significant decrease; Blood urea nitrogen (BUN) levels (jck mice; jck mice, 0.225% in feed, 26-64 days of age, serum at sacrifice, vs untreated controls, p-value<0.05): significant reduction; cystic disease (jck mice; jck mice, 0.225% in feed, as measured by kidney/body weight ratio and cyst volume, males and females): statistically significant reduction; renal function (jck mice; jck mice, 0.225% in feed, treated animals relative to controls, males and females): improved renal function; BUN (jck mice; [2]): 39.25 ± 10.70 mg/dL; Body weight (jck mice; [2]): 18.43 ± 1.82 g; Cystic volume (jck mice; [2]): 0.88 ± 0.23 % BW; K/BW ratio (jck mice; [2]): 4.46 ± 0.46 %

The next lines start with results.

IC50 (GM3)	Compound	also measured
0.1 to 1 µM	CC(O)(CCCCCC(=O)N[C@H](CN1CCCC1)[C@@H](O)c1ccc2c(c1)OCCO2)C1CCCC1 (stereo partly shown) [Compound 633]	–
0.1 to 1 µM	O=C(CCCCCCOCC(F)(F)F)N[C@H](CN1CCCC1)[C@@H](O)c1ccc2c(c1)OCCO2 [Compound 634]	–
≤ 0.1 µM	CC(O)(CCCCCC(=O)N[C@H](CN1CCCC1)[C@@H](O)c1ccc2c(c1)OCCO2)C1CCCCC1 (stereo partly shown) [Compound 641]	–
≤ 0.1 µM	O=C(CCCCCC(=O)c1ccc(F)cc1)NC(CN1CC[C@H](O)C1)[C@H](O)c1ccc2c(c1)OCCO2 (stereo partly shown) [Compound 653]	–
≤ 0.1 µM	O=C(CCCOc1ccc(F)cc1)N[C@@H](CN1CC[C@H](O)C1)[C@H](O)c1ccc2c(c1)OCCO2 [Compound 656]	–
0.1 to 1 µM	CCCCOc1ccc([C@@H](O)[C@@H](CN2CCC(F)C2)NC(=O)CCCCC(=O)c2ccc(F)cc2)cc1 (stereo partly shown) [Compound 658]	–
